{
  "source": "patent US20260126455A1",
  "about": "“Methods and Dosing Regimens for Preventing or Delaying Onset of Alzheimer's Disease and Other Forms of Dementia and Mild Cognitive Impairment” (priority 2020, published 2026)",
  "key": {"[1]": {"settings": "human, in vivo; cited from earlier work"}, "[2]": {"test_system": "lipoprotein-associated phospholipase-A2", "settings": "in vivo; cited from earlier work"}, "[3]": {"settings": "over 20 epidemiological clinical trials; cited from earlier work"}, "5HT6 receptor": {"target": "5HT6 receptor (Homo sapiens, UniProt P50406)", "sequence (P50406 whole entry)": "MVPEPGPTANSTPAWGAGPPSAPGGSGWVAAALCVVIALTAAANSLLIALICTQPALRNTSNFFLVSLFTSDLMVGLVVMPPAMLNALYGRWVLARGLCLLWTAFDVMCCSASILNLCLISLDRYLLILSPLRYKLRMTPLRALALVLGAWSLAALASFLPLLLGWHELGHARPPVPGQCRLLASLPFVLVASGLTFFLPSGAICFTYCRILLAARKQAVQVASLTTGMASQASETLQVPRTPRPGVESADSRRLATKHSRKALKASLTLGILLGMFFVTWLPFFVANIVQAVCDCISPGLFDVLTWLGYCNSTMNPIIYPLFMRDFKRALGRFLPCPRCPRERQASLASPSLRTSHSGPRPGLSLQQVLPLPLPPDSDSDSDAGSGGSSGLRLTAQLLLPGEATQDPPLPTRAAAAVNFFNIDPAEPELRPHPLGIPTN", "settings": "in vivo; cited from earlier work"}, "beta-secretase": {"target": "T1, beta-secretase (Homo sapiens, UniProt P56817)", "T1 construct": "from tissue; host or cells: clinical-trial subjects (in vivo)", "T1 sequence (P56817 46-501)": "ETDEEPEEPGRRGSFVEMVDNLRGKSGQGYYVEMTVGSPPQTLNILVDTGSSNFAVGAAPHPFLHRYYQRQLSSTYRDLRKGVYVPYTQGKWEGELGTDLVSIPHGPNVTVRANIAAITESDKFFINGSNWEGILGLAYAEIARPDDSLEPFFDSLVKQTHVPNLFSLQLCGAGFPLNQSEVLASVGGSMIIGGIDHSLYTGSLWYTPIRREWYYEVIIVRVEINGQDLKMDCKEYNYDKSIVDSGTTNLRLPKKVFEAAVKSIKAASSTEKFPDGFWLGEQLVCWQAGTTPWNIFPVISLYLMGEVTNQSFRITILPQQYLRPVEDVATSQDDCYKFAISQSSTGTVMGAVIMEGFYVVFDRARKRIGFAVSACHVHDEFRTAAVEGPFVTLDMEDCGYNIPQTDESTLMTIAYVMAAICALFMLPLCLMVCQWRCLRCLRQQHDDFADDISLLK", "settings": "in vivo; cited from earlier work"}, "SK-N-MC neurons [4]": {"test_system": "SK-N-MC neurons", "test": "Morphological scoring of SK-N-MC cells exposed to Abeta42 plus A7R compounds", "assay_type": "cell-based, human"}, "SK-N-MC neurons [5]": {"test_system": "SK-N-MC neurons", "test": "Abeta42 immunocytochemistry: intracellular Abeta42 labeling in SK-N-MC cells exposed to Abeta42 plus A7R compounds", "assay_type": "cell-based, human"}, "[6]": {"test_system": "A7R-transfected SK-N-MC human neuroblastoma cells", "settings": "cited from earlier work; for Intracellular accumulation of the peptide: 100 nanomolar"}, "[7]": {"test_system": "Human neuroblastoma SK-N-MC cells, transfected with A7R", "settings": "100 nanomolar for 6 hours; cited from earlier work"}, "A7R [8]": {"target": "A7R", "settings": "guinea pig receptors; read-out: Ki, binding to A7R; cited from earlier work"}, "A7R [9]": {"target": "A7R (Rattus norvegicus, UniProt Q05941)", "sequence (Q05941 23-502)": "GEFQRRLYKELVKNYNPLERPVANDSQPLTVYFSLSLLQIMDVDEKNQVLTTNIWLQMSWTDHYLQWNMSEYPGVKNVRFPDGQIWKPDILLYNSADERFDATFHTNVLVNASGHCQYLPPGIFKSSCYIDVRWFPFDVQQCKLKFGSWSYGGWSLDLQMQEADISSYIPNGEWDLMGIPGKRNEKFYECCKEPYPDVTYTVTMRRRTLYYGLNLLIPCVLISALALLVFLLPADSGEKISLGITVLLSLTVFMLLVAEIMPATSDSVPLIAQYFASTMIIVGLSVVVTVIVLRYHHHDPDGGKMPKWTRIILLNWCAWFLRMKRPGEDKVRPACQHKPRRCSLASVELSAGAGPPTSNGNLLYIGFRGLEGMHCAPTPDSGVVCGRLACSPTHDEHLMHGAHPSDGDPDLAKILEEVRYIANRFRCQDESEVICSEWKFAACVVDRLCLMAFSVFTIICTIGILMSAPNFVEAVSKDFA", "settings": "rat receptors; read-out: Ki, binding to A7R; cited from earlier work"}, "C57BL/6J mice": {"test_system": "C57BL/6J mice", "test": "CognitionWall discrimination learning test, 2-week study", "assay_type": "in vivo", "procedure": "This 2-week study was comprised of 2 groups of C57BL/6J mice as outlined in Table 5. Mice were infused with 100 μl pertussis toxin (3.0×10−3 μg/μl in saline) or 100 μl saline into the tail vein according to Table 5 to affect the BBB. Subsequently, Abeta42 (100 μl of 6.9 μM in saline) was infused into the tail vein. Groups 1 and 2 received 2 cycles of Abeta42 treatment.\nDeficits in learning behavior correlated with degenerating neurons in mice treated with pertussis toxin and Abeta42 as compared with untreated mice in the 2-week study. The CognitionWall discrimination learning test was used to test learning behaviors in the mice. Fifteen minutes before the start of the discrimination learning (DL) and reversal learning (RL) task at 16.30 h on the 3th light phase in the Phenotyper, the CognitionWall was placed in front of the reward dispenser spout. After placement, several free rewards were dispensed and standard chow was removed from the feeding station. Mice had to learn to earn their food (Dustless Precision Pellets, 14 mg) by going through the left hole in the wall for the next 2 days (DL1 and DL2). The middle and right hole were deemed incorrect holes and passing through these holes was without any consequences. During the subsequent 2 days, the rewarded hole was switched to the right hole (reversal learning; RL1 and RL2). During DL and RL, one reward was delivered for every fifth entry through the correct hole (FR5 schedule of reinforcement). Mice were not required to make 5 consecutive correct entries (i.e., no chaining requirement). […] Online display of the number of earned rewards was used to evaluate food intake during the experiment. Based on pilot experiments to quantify the number of food rewards required to maintain body weight, mice were fed extra reward pellets when they earn fewer than 100 rewards per day for 2 or more consecutive days. […]"}, "amyloid": {"test_system": "amyloid", "sequence (P05067 672-711)": "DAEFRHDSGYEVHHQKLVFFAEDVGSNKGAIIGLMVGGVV", "settings": "Alzheimer's disease subjects; Solanezumab: Phase 3, mild Alzheimer's disease; cited from earlier work"}, "ischemic brain": {"test_system": "ischemic brain", "settings": "rat, in vivo; cited from earlier work"}},
  "note": "Several values for one entry are separate records, joined by “and”; a condition that tells them apart may be missing. Identical values can stand only once. Like-named read-outs stand apart in the source and are kept apart here.",
  "data": [
    {"molecule": "CC(C)c1c(C(=O)Nc2ccccc2)c(-c2ccccc2)c(-c2ccc(F)cc2)n1CC[C@@H](O)C[C@@H](O)CC(=O)O", "note": "[Atorvastatin]", "values": [
      {"measurement": "Cognitive measures", "setting": "[1]", "value": "did not improve cognitive measures"}
    ]},
    {"molecule": "CCN(CC)CCN(Cc1ccc(-c2ccc(C(F)(F)F)cc2)cc1)C(=O)Cn1c(SCc2ccc(F)cc2)nc(=O)c2c1CCC2", "note": "[Darapladib]", "values": [
      {"measurement": "BBB leakage", "setting": "[2]", "value": "reducing BBB leakage"},
      {"measurement": "Progression of atherosclerosis", "setting": "[2]", "value": "blocked the progression of atherosclerosis"}
    ]},
    {"molecule": "CC(C)Cc1ccc(C(C)C(=O)O)cc1", "note": "(stereo not drawn) [Ibuprofen]", "values": [
      {"measurement": "Risk of Alzheimer's disease", "setting": "[3]", "value": "reduce the risk of Alzheimer's disease"}
    ]},
    {"molecule": "COc1ccc2c(c1)c(CC(=O)O)c(C)n2C(=O)c1ccc(Cl)cc1", "note": "[Indomethacin]", "values": [
      {"measurement": "Risk of Alzheimer's disease", "setting": "[3]", "value": "reduce the risk of Alzheimer's disease"}
    ]},
    {"molecule": "O=S(=O)(c1ccccc1)c1cnc2c(N3CCNCC3)cccc2c1", "note": "[Intepirdine]", "values": [
      {"measurement": "Goals of a pivotal trial", "setting": "5HT6 receptor", "value": "failed to meet the goals of a pivotal trial"}
    ]},
    {"molecule": "NC1=N[C@@]2(c3cc(NC(=O)c4ccc(F)cn4)ccc3F)COC[C@H]2CS1", "note": "[LY2886721]", "values": [
      {"measurement": "Reason for stopping the clinical studies", "setting": "beta-secretase", "value": "toxicity"}
    ]},
    {"molecule": "CN1CCCC1c1cccnc1", "note": "(stereo not drawn) [Nicotine]", "values": [
      {"measurement": "Morphologic scores 2 hr", "setting": "SK-N-MC neurons [4]", "value": 2.7},
      {"measurement": "Morphologic scores 4 hr", "setting": "SK-N-MC neurons [4]", "value": 2.8},
      {"measurement": "Morphologic scores 6 hr", "setting": "SK-N-MC neurons [4]", "value": 2.8},
      {"measurement": "Abeta42 immunolabeling scores 2 hr", "setting": "SK-N-MC neurons [5]", "value": 1.7},
      {"measurement": "Abeta42 immunolabeling scores 6 hr", "setting": "SK-N-MC neurons [5]", "value": 0.3}
    ]},
    {"molecule": "c1cnc2cc3c(cc2n1)[C@@H]1CNC[C@H]3C1", "note": "[Varenicline]", "values": [
      {"measurement": "Protection of cells from Abeta42 toxicity (observed morphology)", "setting": "SK-N-MC neurons [4]; cells treated with compound and Abeta42, similar at the other time points", "value": "protected from Abeta42 toxicity"}
    ]},
    {"molecule": "Abeta40", "values": [
      {"measurement": "Intracellular accumulation of the peptide", "setting": "[6]; 3 hours", "value": "little detectable accumulation"}
    ]},
    {"molecule": "Abeta42", "values": [
      {"measurement": "Cell death", "setting": "[7]", "value": "cell death"},
      {"measurement": "Ki", "setting": "A7R [8]", "value": 5, "unit": "pM"},
      {"measurement": "Intracellular accumulation of the peptide", "setting": "[6]; 3 hours", "value": "prominent, irregularly shaped Abeta42-positive deposits"},
      {"measurement": "Intracellular accumulation of the peptide", "setting": "[6]; within 30 minutes", "value": "some accumulation of Abeta42-positive material"},
      {"measurement": "Ki", "setting": "A7R [9]", "value": 4.1, "unit": "pM"},
      {"measurement": "Learning performance in words", "setting": "C57BL/6J mice; 2-week pilot study, 6 mice per group", "value": "did not impact learning impairment"},
      {"measurement": "Entries to reach the learning criterion, group value", "setting": "C57BL/6J mice; 2 NA scores estimated as ~500", "value": "~230", "unit": "entries"},
      {"measurement": "Entries (entries to 80% correct learning criterion)", "setting": "C57BL/6J mice; individual mouse, 2-week study, NA = too impaired to test, T1, T2 second Abeta42 dose most likely subcutaneous", "value": "307 and 130 and 180 and 264 and 134 and 370"}
    ]},
    {"molecule": "Alpha-bungarotoxin", "values": [
      {"measurement": "Inhibition of Abeta42 accumulation in transfected cells", "setting": "[6]", "value": "inhibited Abeta42 accumulation"},
      {"measurement": "Morphologic scores 6 hr", "setting": "SK-N-MC neurons [4]", "value": 2.5},
      {"measurement": "Abeta42 immunolabeling scores 1 hr", "setting": "SK-N-MC neurons [5]", "value": "0/1"},
      {"measurement": "Abeta42 immunolabeling scores 2 hr", "setting": "SK-N-MC neurons [5]", "value": "1/0"},
      {"measurement": "Abeta42 immunolabeling scores 4 hr", "setting": "SK-N-MC neurons [5]", "value": "1/0"}
    ]},
    {"molecule": "Solanezumab: yet another anti-amyloid antibody", "values": [
      {"measurement": "Clinical trial efficacy end points", "setting": "amyloid", "value": "failed to reach statistical significance"}
    ]},
    {"molecule": "VEGF", "values": [
      {"measurement": "Angiogenesis in the ischemic brain", "setting": "ischemic brain", "value": "enhanced angiogenesis"},
      {"measurement": "Neurological recovery", "setting": "ischemic brain", "value": "improved neurological recovery"}
    ]}
  ]
}
